{"source": "the supplement of paper PMC10307832", "assay_in_all_cases": "relative viability (nuclei count vs DMSO), 5 days (fraction); higher = more cells survive", "key": {"NCI-H727": {"tested_on": "NCI-H727", "in_short": "(§1)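 Relative viability equals treated-well nuclei counts divided by vehicle-well nuclei counts. Counts came from 4× images of lung cancer cell lines grown in 1536-well plates for 5 days after pin-tool dosing on the day after seeding. Dosing used one drug alone or a fixed anchor-drug dose plus five library-drug doses (not always all listed) in √10 steps, and values are medians of duplicate plates.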"}, "NCI-H1666": {"tested_on": "NCI-H1666", "in_short": "as §1"}, "NCI-H2342": {"tested_on": "NCI-H2342", "in_short": "as §1"}, "BEN": {"tested_on": "BEN", "in_short": "as §1"}, "NCI-H650": {"tested_on": "NCI-H650", "in_short": "as §1"}, "NCI-H647": {"tested_on": "NCI-H647", "in_short": "as §1"}, "LXF-289": {"tested_on": "LXF-289", "in_short": "as §1"}, "HCC-827": {"tested_on": "HCC-827", "in_short": "as §1"}, "NCI-H441": {"tested_on": "NCI-H441", "in_short": "as §1"}, "NCI-H1915": {"tested_on": "NCI-H1915", "in_short": "as §1"}, "NCI-H2228": {"tested_on": "NCI-H2228", "in_short": "as §1"}, "SW 1573": {"tested_on": "SW 1573", "in_short": "as §1"}, "EPLC-272H": {"tested_on": "EPLC-272H", "in_short": "as §1"}, "NCI-H2347": {"tested_on": "NCI-H2347", "in_short": "as §1"}, "NCI-H2170": {"tested_on": "NCI-H2170", "in_short": "as §1"}, "NCI-H1437": {"tested_on": "NCI-H1437", "in_short": "as §1"}, "NCI-H522": {"tested_on": "NCI-H522", "in_short": "as §1"}, "NCI-H23": {"tested_on": "NCI-H23", "in_short": "as §1"}, "NCI-H358": {"tested_on": "NCI-H358", "in_short": "as §1"}, "LU99A": {"tested_on": "LU99A", "in_short": "as §1"}, "NCI-H322M": {"tested_on": "NCI-H322M", "in_short": "as §1"}, "SK-MES-1": {"tested_on": "SK-MES-1", "in_short": "as §1"}, "HOP-62": {"tested_on": "HOP-62", "in_short": "as §1"}}, "data": [{"smiles": "Oc1nc(-c2ccc(C(F)(F)F)cc2)nc2c1CSCC2", "note": "[XAV939] + O=C(CCCCCCC(=O)Nc1ccccc1)NO [Vorinostat] (partner 1 µM)", "values": [{"measurement": "relative viability", "setting": "NCI-H727; first compound 0.08 µM", "result": 1.25}, {"measurement": "relative viability", "setting": "NCI-H727; first compound 0.8 µM", "result": 1}, {"measurement": "relative viability", "setting": "NCI-H727; first compound 2.53 µM", "result": 1.02}, {"measurement": "relative viability", "setting": "NCI-H1666; first compound 0.08 µM", "result": 0.978}, {"measurement": "relative viability", "setting": "NCI-H1666; first compound 0.253 µM", "result": 0.889}, {"measurement": "relative viability", "setting": "NCI-H1666; first compound 0.8 µM", "result": 0.906}, {"measurement": "relative viability", "setting": "NCI-H1666; first compound 2.53 µM", "result": 1.15}, {"measurement": "relative viability", "setting": "NCI-H2342; first compound 0.08 µM", "result": 0.791}, {"measurement": "relative viability", "setting": "NCI-H2342; first compound 0.253 µM", "result": 0.705}, {"measurement": "relative viability", "setting": "NCI-H2342; first compound 0.8 µM", "result": 0.768}, {"measurement": "relative viability", "setting": "NCI-H2342; first compound 2.53 µM", "result": 0.533}, {"measurement": "relative viability", "setting": "BEN; first compound 0.08 µM", "result": 0.556}, {"measurement": "relative viability", "setting": "BEN; first compound 0.253 µM", "result": 0.587}, {"measurement": "relative viability", "setting": "BEN; first compound 0.8 µM", "result": 0.514}, {"measurement": "relative viability", "setting": "BEN; first compound 2.53 µM", "result": 0.418}, {"measurement": "relative viability", "setting": "NCI-H650; first compound 0.08 µM", "result": 0.461}, {"measurement": "relative viability", "setting": "NCI-H650; first compound 0.253 µM", "result": 0.345}, {"measurement": "relative viability", "setting": "NCI-H650; first compound 0.8 µM", "result": 0.506}, {"measurement": "relative viability", "setting": "NCI-H650; first compound 2.53 µM", "result": 0.368}, {"measurement": "relative viability", "setting": "NCI-H647; first compound 0.08 µM", "result": 0.581}, {"measurement": "relative viability", "setting": "NCI-H647; first compound 0.253 µM", "result": 0.545}, {"measurement": "relative viability", "setting": "NCI-H647; first compound 0.8 µM", "result": 0.496}, {"measurement": "relative viability", "setting": "NCI-H647; first compound 2.53 µM", "result": 0.207}, {"measurement": "relative viability", "setting": "LXF-289; first compound 0.08 µM", "result": 0.728}, {"measurement": "relative viability", "setting": "LXF-289; first compound 0.253 µM", "result": 0.68}, {"measurement": "relative viability", "setting": "LXF-289; first compound 0.8 µM", "result": 0.804}, {"measurement": "relative viability", "setting": "LXF-289; first compound 2.53 µM", "result": 0.8}, {"measurement": "relative viability", "setting": "HCC-827; first compound 0.08 µM", "result": 0.872}, {"measurement": "relative viability", "setting": "HCC-827; first compound 0.253 µM", "result": 0.867}, {"measurement": "relative viability", "setting": "HCC-827; first compound 0.8 µM", "result": 0.803}, {"measurement": "relative viability", "setting": "HCC-827; first compound 2.53 µM", "result": 0.686}, {"measurement": "relative viability", "setting": "NCI-H441; first compound 0.08 µM", "result": 1.02}, {"measurement": "relative viability", "setting": "NCI-H441; first compound 0.253 µM", "result": 0.822}, {"measurement": "relative viability", "setting": "NCI-H441; first compound 0.8 µM", "result": 1.09}, {"measurement": "relative viability", "setting": "NCI-H441; first compound 2.53 µM", "result": 0.782}, {"measurement": "relative viability", "setting": "NCI-H1915; first compound 0.08 µM", "result": 0.603}, {"measurement": "relative viability", "setting": "NCI-H1915; first compound 0.253 µM", "result": 0.51}, {"measurement": "relative viability", "setting": "NCI-H1915; first compound 0.8 µM", "result": 0.5}, {"measurement": "relative viability", "setting": "NCI-H1915; first compound 2.53 µM", "result": 0.498}, {"measurement": "relative viability", "setting": "NCI-H2228; first compound 0.08 µM", "result": 0.639}, {"measurement": "relative viability", "setting": "NCI-H2228; first compound 0.253 µM", "result": 0.589}, {"measurement": "relative viability", "setting": "NCI-H2228; first compound 0.8 µM", "result": 0.775}, {"measurement": "relative viability", "setting": "NCI-H2228; first compound 2.53 µM", "result": 0.597}, {"measurement": "relative viability", "setting": "SW 1573; first compound 0.08 µM", "result": 0.922}, {"measurement": "relative viability", "setting": "SW 1573; first compound 0.253 µM", "result": 0.8}, {"measurement": "relative viability", "setting": "SW 1573; first compound 0.8 µM", "result": 0.542}, {"measurement": "relative viability", "setting": "SW 1573; first compound 2.53 µM", "result": 0.373}, {"measurement": "relative viability", "setting": "EPLC-272H; first compound 0.08 µM", "result": 0.369}, {"measurement": "relative viability", "setting": "EPLC-272H; first compound 0.253 µM", "result": 0.339}, {"measurement": "relative viability", "setting": "EPLC-272H; first compound 0.8 µM", "result": 0.746}, {"measurement": "relative viability", "setting": "EPLC-272H; first compound 2.53 µM", "result": 0.324}, {"measurement": "relative viability", "setting": "NCI-H2347; first compound 0.08 µM", "result": 0.609}, {"measurement": "relative viability", "setting": "NCI-H2347; first compound 0.253 µM", "result": 0.496}, {"measurement": "relative viability", "setting": "NCI-H2347; first compound 0.8 µM", "result": 0.593}, {"measurement": "relative viability", "setting": "NCI-H2347; first compound 2.53 µM", "result": 0.414}, {"measurement": "relative viability", "setting": "NCI-H2170; first compound 0.08 µM", "result": 0.86}, {"measurement": "relative viability", "setting": "NCI-H2170; first compound 0.253 µM", "result": 0.614}, {"measurement": "relative viability", "setting": "NCI-H2170; first compound 0.8 µM", "result": 0.739}, {"measurement": "relative viability", "setting": "NCI-H2170; first compound 2.53 µM", "result": 0.543}, {"measurement": "relative viability", "setting": "NCI-H1437; first compound 0.08 µM", "result": 0.834}, {"measurement": "relative viability", "setting": "NCI-H1437; first compound 0.253 µM", "result": 0.649}, {"measurement": "relative viability", "setting": "NCI-H1437; first compound 0.8 µM", "result": 0.62}, {"measurement": "relative viability", "setting": "NCI-H1437; first compound 2.53 µM", "result": 0.477}, {"measurement": "relative viability", "setting": "NCI-H522; first compound 0.08 µM", "result": 1.17}, {"measurement": "relative viability", "setting": "NCI-H522; first compound 0.253 µM", "result": 0.851}, {"measurement": "relative viability", "setting": "NCI-H522; first compound 0.8 µM", "result": 0.718}, {"measurement": "relative viability", "setting": "NCI-H522; first compound 2.53 µM", "result": 0.846}, {"measurement": "relative viability", "setting": "NCI-H23; first compound 0.08 µM", "result": 0.684}, {"measurement": "relative viability", "setting": "NCI-H23; first compound 0.8 µM", "result": 0.66}, {"measurement": "relative viability", "setting": "NCI-H23; first compound 2.53 µM", "result": 0.415}, {"measurement": "relative viability", "setting": "NCI-H358; first compound 0.08 µM", "result": 0.796}, {"measurement": "relative viability", "setting": "NCI-H358; first compound 0.253 µM", "result": 0.49}, {"measurement": "relative viability", "setting": "NCI-H358; first compound 0.8 µM", "result": 0.658}, {"measurement": "relative viability", "setting": "NCI-H358; first compound 2.53 µM", "result": 0.565}, {"measurement": "relative viability", "setting": "LU99A; first compound 0.08 µM", "result": 0.454}, {"measurement": "relative viability", "setting": "LU99A; first compound 0.253 µM", "result": 0.598}, {"measurement": "relative viability", "setting": "LU99A; first compound 0.8 µM", "result": 0.507}, {"measurement": "relative viability", "setting": "LU99A; first compound 2.53 µM", "result": 0.43}, {"measurement": "relative viability", "setting": "NCI-H322M; first compound 0.08 µM", "result": 1.1}, {"measurement": "relative viability", "setting": "NCI-H322M; first compound 0.253 µM", "result": 0.805}, {"measurement": "relative viability", "setting": "NCI-H322M; first compound 0.8 µM", "result": 0.826}, {"measurement": "relative viability", "setting": "NCI-H322M; first compound 2.53 µM", "result": 0.622}, {"measurement": "relative viability", "setting": "SK-MES-1; first compound 0.08 µM", "result": 1.1}, {"measurement": "relative viability", "setting": "SK-MES-1; first compound 0.253 µM", "result": 0.954}, {"measurement": "relative viability", "setting": "SK-MES-1; first compound 0.8 µM", "result": 0.92}, {"measurement": "relative viability", "setting": "SK-MES-1; first compound 2.53 µM", "result": 0.831}, {"measurement": "relative viability", "setting": "HOP-62; first compound 0.08 µM", "result": 0.888}, {"measurement": "relative viability", "setting": "HOP-62; first compound 0.253 µM", "result": 0.525}, {"measurement": "relative viability", "setting": "HOP-62; first compound 0.8 µM", "result": 0.501}, {"measurement": "relative viability", "setting": "HOP-62; first compound 2.53 µM", "result": 0.311}]}]}
